The test system of one data set is plasma proteins. Briefly: Plasma protein binding by high-throughput equilibrium dialysis. The following applies: Mann–Whitney U test, n = 6 per group. It is filed as in vitro ADME, dog.
Assay in data set [1]: as above
It is filed as in vitro ADME, dog. The note with it: both, dog, plasma.

The source of these data is PMC6744390 (Drug Metabolism and Disposition, 2019).

Bounds are passed on as bounds.

Turning to `COc1c(C)c2c(c(O)c1C/C=C(\C)CCC(=O)O)C(=O)OC2` [mycophenolic acid], in the data set on plasma proteins, the “difference in plasma protein binding between H1 and H2 allele plasma” value was “No significant difference”.
For `Cc1ccc(-c2cc(C(F)(F)F)nn2-c2ccc(S(N)(=O)=O)cc2)cc1` [celecoxib], the “difference in plasma protein binding between H1 and H2 allele plasma” value with plasma proteins is on record as “No significant difference”. Moreover, in data set [1], the fraction unbound (as a rule, the share of the substance not bound to proteins or other matrix) at 4 h, 4 µM is less than 0.02.
